Data as given in patent publication US11873295B2, “Allosteric chromenone inhibitors of phosphoinositide 3-kinase (PI3K) for the treatment of disease” (Petra Pharma Corporation, priority 2021, dated 2024).

What was measured:
[1] = target: T1, human full length PIK3KA H1047R mutant (p110α/p85α complex) (Homo sapiens, UniProt P42336, H1047R); experiment: PI3K-alpha kinase (PIK3CA) biochemical activity, H1047R mutant, ADP-Glo; settings: PI3K-α (PIK3CA) biochemical, H1047R mutant, Soy PI lipid substrate
T1 construct: Recombinant, catalytically active human full length PIK3KA Wild-type and H1047R mutant were purchased as 1:1 complex; 6xHis (N); purchased EMD Millipore Sigma 14-792M
T1 sequence (P42336 whole entry H1047R): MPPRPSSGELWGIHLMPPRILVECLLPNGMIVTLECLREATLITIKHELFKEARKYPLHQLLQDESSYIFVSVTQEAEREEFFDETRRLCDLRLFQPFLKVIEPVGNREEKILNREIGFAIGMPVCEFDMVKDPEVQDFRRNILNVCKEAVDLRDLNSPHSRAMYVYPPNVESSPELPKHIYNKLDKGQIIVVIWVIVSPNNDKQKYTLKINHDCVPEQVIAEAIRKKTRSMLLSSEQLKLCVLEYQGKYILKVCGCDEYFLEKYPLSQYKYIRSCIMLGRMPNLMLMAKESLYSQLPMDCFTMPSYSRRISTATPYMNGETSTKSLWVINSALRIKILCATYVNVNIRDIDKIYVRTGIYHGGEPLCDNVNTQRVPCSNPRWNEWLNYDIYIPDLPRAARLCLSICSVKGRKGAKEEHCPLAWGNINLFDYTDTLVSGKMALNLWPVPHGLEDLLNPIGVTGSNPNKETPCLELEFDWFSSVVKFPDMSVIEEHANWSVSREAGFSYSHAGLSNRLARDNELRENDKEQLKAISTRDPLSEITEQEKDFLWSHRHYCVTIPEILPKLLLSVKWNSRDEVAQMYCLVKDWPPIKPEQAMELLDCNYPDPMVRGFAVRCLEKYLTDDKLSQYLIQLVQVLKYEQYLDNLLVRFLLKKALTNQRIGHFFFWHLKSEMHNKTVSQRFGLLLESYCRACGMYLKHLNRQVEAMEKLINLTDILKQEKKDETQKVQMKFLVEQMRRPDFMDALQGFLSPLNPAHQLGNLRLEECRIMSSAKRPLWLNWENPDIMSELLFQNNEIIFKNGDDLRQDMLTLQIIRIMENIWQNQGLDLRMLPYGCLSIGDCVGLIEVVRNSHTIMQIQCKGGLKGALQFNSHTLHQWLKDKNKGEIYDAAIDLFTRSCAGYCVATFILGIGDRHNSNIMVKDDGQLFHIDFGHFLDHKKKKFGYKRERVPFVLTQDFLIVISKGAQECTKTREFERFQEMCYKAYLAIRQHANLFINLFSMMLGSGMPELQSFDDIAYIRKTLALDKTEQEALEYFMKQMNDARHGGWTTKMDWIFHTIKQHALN
T1 sequence (P27986 whole entry partner): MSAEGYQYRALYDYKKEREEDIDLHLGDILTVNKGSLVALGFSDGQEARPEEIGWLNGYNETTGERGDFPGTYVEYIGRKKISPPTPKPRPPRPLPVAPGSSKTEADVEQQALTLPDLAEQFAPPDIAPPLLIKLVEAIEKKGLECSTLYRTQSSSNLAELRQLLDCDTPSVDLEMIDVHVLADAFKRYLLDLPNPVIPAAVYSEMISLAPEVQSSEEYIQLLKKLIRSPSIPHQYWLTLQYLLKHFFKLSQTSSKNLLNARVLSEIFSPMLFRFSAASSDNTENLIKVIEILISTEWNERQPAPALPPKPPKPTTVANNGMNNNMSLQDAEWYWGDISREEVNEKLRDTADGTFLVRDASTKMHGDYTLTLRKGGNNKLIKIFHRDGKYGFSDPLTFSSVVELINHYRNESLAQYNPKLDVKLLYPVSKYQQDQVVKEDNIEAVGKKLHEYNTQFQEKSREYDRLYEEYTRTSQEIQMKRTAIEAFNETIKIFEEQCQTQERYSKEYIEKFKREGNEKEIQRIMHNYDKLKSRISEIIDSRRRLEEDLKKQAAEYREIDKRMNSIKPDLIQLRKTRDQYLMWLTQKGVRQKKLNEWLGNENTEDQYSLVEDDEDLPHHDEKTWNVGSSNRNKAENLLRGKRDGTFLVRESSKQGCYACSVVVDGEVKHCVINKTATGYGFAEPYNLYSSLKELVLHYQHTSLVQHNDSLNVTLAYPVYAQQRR
Method in brief: (§1)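 Full-length His-p110α/p85α complex, wild-type or H1047R, 1–5 nM, preincubated with compound 1 h at 27 °C in HEPES pH 7.4, 25 mM MgCl2, 0.01% Triton X-100, 1% DMSO. Reaction with 20 μM ATP and 50 μM PIP2diC8 or soy PI at 27 °C to ~10% ATP conversion; ADP-Glo luminescence. IC50 from 10-point four-parameter logistic fit.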

[2] = system: PI3K-α (PIK3CA) in MDA-MB-453 cells; experiment: PI3K-alpha kinase (PIK3CA) activity in vitro cell based assay, MDA-MB-453 cells, AlphaLisa SureFire; settings: 0% FBS, 3 hours treatment, relative IC50
Method in brief: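 MDA-MB-453 cells in serum-free MEM with 1 μg/mL insulin treated 3 h with 10-point 1:3 compound dilutions, 0.3% DMSO. Lysates read by AlphaLisa SureFire; percent inhibition relative to DMSO (max) and 1 μM GDC-0032 (min), duplicate means fitted to 4-parameter logistic for relative IC50.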

[3] = target: T2, human full length PIK3KA Wild-type (p110α/p85α complex) (Homo sapiens, UniProt P42336); experiment: PI3K-alpha kinase (PIK3CA) biochemical activity, wild-type, ADP-Glo; settings: PI3K-α (PIK3CA) biochemical, Soy PI lipid substrate
T2 construct: Recombinant, catalytically active human full length PIK3KA Wild-type and H1047R mutant were purchased as 1:1 complex; 6xHis (N); purchased EMD Millipore Sigma 14-602M
Method in brief: as §1

IC50 [1]	IC50 ([2]; Homo sapiens, MDA-MB-453, 3 h)	IC50 [3]	IC50 [2]	Compound
< 500 nM	< 50 nM	1000 to 5000 nM		Cc1cc([C@@H](C)Nc2ccccc2C(=O)O)c2oc(-c3ccccc3)c(-c3cnoc3)c(=O)c2c1 [Example 85, 2-[[(1R)-1-(3-Isoxazol-4-yl-6-methyl-4-oxo-2-phenyl-chromen-8-yl)ethyl]amino]benzoic acid 2,2,2-trifluoroacetic acid]
< 500 nM		1000 to 5000 nM	100 to 500 nM	Cc1cc([C@@H](C)Nc2ccc(C#N)nc2C(=O)O)c2oc(-c3ccccc3)c(C)c(=O)c2c1 (single isomer, unassigned; isomer 2) [Example 160]
< 500 nM	< 50 nM	1000 to 5000 nM		Cc1cc([C@@H](C)Nc2ncccc2C(=O)O)c2oc(-c3ccccc3)c(C)c(=O)c2c1 [Example 137, 2-[[(1R)-1-(3,6-Dimethyl-4-oxo-2-phenyl-chromen-8-yl)ethyl]amino]pyridine-3-carboxylic acid]
500 to 1000 nM	100 to 500 nM	> 10000 nM		Cc1cc(C(C)Nc2cccc(F)c2C(=O)O)c2oc(-c3ccccc3F)c(C)c(=O)c2c1 (single isomer, unassigned; isomer 2) [Example 104, 2-Fluoro-6-[1-[2-(2-fluorophenyl)-3,6-dimethyl-4-oxo-chromen-8-yl]ethylamino]benzoic acid, Isomer 2]
< 500 nM	< 50 nM	< 500 nM		Cc1cc([C@@H](C)Nc2ccc(Cl)nc2C(=O)O)c2oc(-c3cccc(C#N)c3)c(C)c(=O)c2c1 [Example 115, 6-Chloro-3-[[(1R)-1-[2-(3-cyanophenyl)-3,6-dimethyl-4-oxo-chromen-8-yl]ethyl]amino]pyridine-2-carboxylic acid 2,2,2-trifluoroacetic acid]
< 500 nM	< 50 nM	1000 to 5000 nM		Cc1cc([C@@H](C)Nc2ccc(Cl)nc2C(=O)O)c2oc(-c3ccc(F)c(F)c3)c(C)c(=O)c2c1 [Example 113, 6-Chloro-3-[[(1R)-1-[2-(3,4-difluorophenyl)-3,6-dimethyl-4-oxo-chromen-8-yl]ethyl]amino]pyridine-2-carboxylic acid]
1000 to 5000 nM	100 to 500 nM	> 10000 nM		Cc1cc(C(C)Nc2cccnc2C(=O)O)c2oc(-c3ccccc3F)c(C)c(=O)c2c1 (stereo not drawn) [Example 93, 3-[1-[2-(2-Fluorophenyl)-3,6-dimethyl-4-oxo-chromen-8-yl]ethylamino]pyridine-2-carboxylic acid 2,2,2-trifluoroacetic acid]
5000 to 10000 nM		5000 to 10000 nM	> 500 nM	Cc1cc([C@@H](C)Nc2ccc(C#N)cc2C(=O)O)c2oc(-c3ccccc3)c(C)c(=O)c2c1 (single isomer, unassigned; isomer 1) [Example 157]
< 500 nM	< 50 nM	5000 to 10000 nM		Cc1cc([C@@H](C)Nc2ccccc2C(=O)O)c2oc(-c3ccccc3C#N)cc(=O)c2c1 [Example 15, 2-[[(1R)-1-[2-(2-Cyanophenyl)-6-methyl-4-oxo-chromen-8-yl]ethyl]amino]benzoic acid]
< 500 nM	100 to 500 nM	1000 to 5000 nM		Cc1cc([C@@H](C)Nc2ccccc2C(=O)O)c2oc(-c3cccc(C(C)(C)C(N)=O)c3)c(C)c(=O)c2c1 [Example 118, 2-[[(1R)-1-[2-[3-(2-Amino-1,1-dimethyl-2-oxo-ethyl)phenyl]-3,6-dimethyl-4-oxo-chromen-8-yl]ethyl]amino]benzoic acid 2,2,2-trifluoroacetic acid]
< 500 nM	< 50 nM	< 500 nM		Cc1cc([C@@H](C)Nc2ccccc2C(=O)O)c2oc(-c3ccc(-c4cnn(C)c4)cc3)c(C)c(=O)c2c1 [Example 164, 2-[[(1R)-1-[3,6-Dimethyl-2-[4-(1-methylpyrazol-4-yl)phenyl]-4-oxo-chromen-8-yl]ethyl]amino]benzoic acid]
< 500 nM	< 50 nM	1000 to 5000 nM		Cc1cc(C(C)Nc2ccc(Cl)nc2C(=O)O)c2oc(-c3ccccc3)c(I)c(=O)c2c1 (stereo not drawn) [Example 140, 6-Chloro-3-[1-(3-iodo-6-methyl-4-oxo-2-phenyl-chromen-8-yl)ethylamino]pyridine-2-carboxylic acid 2,2,2-trifluoroacetic acid]
< 500 nM	< 50 nM	1000 to 5000 nM		Cc1cc([C@@H](C)Nc2ccc(C(F)(F)F)nc2C(=O)O)c2oc(-c3cccc(C#N)c3)c(C)c(=O)c2c1 [Example 126, 3-[[(1R)-1-[2-(3-Cyanophenyl)-3,6-dimethyl-4-oxo-chromen-8-yl]ethyl]amino]-6-(trifluoromethyl)pyridine-2-carboxylic acid]
< 500 nM	< 50 nM	500 to 1000 nM		Cc1cc([C@@H](C)Nc2ccc(Cl)c(F)c2C(=O)O)c2oc(-c3ccccc3)c(C)c(=O)c2c1 [Example 42, 3-Chloro-6-[[(1R)-1-(3,6-dimethyl-4-oxo-2-phenyl-chromen-8-yl)ethyl]amino]-2-fluoro-benzoic acid]
< 500 nM		1000 to 5000 nM	< 50 nM	Cc1cc([C@@H](C)Nc2ccc(C#N)cc2C(=O)O)c2oc(-c3ccccc3)c(C)c(=O)c2c1 (single isomer, unassigned; isomer 2) [Example 158]
< 500 nM	< 50 nM	1000 to 5000 nM		Cc1cc([C@@H](C)Nc2ccc(C(F)(F)F)nc2C(=O)O)c2oc(-c3ccc(F)c(F)c3)c(C)c(=O)c2c1 [Example 123, 3-[[(1R)-1-[2-(3,4-Difluorophenyl)-3,6-dimethyl-4-oxo-chromen-8-yl]ethyl]amino]-6-(trifluoromethyl)pyridine-2-carboxylic acid]
< 500 nM	< 50 nM	1000 to 5000 nM		Cc1cc(C(C)Nc2cccc(F)c2C(=O)O)c2oc(-c3ccccc3F)c(C)c(=O)c2c1 (stereo not drawn) [Example 94, 2-Fluoro-6-[1-[2-(2-fluorophenyl)-3,6-dimethyl-4-oxo-chromen-8-yl]ethylamino]benzoic acid 2,2,2-trifluoroacetic acid]
5000 to 10000 nM	> 500 nM	> 10000 nM		Cc1cc(C(C)Nc2ccccc2C(=O)O)c2oc(-c3ccc(C(=O)N(C)C)cc3)cc(=O)c2c1 (single isomer, unassigned; isomer 2) [Example 50, 2-[1-[2-[4-(Dimethylcarbamoyl)-phenyl]-6-methyl-4-oxo-chromen-8-yl]ethylamino]benzoic acid, Isomer 2]
500 to 1000 nM	> 500 nM	> 10000 nM		Cc1cc([C@@H](C)Nc2ccccc2C(=O)O)c2oc(-c3ccccc3)c(NCCC(=O)O)c(=O)c2c1 [Example 171, 2-[[(1R)-1-[3-(2-Carboxyethylamino)-6-methyl-4-oxo-2-phenyl-chromen-8-yl]ethyl]amino]benzoic acid 2,2,2-trifluoroacetic acid]
< 500 nM	< 50 nM	> 10000 nM		Cc1cc([C@@H](C)Nc2ccccc2C(=O)O)c2oc(-c3ccccc3C)cc(=O)c2c1 [Example 14, 2-[[(1R)-1-[6-Methyl-2-(o-tolyl)-4-oxo-chromen-8-yl]ethyl]amino]benzoic acid]
< 500 nM	< 50 nM	1000 to 5000 nM		COC(=O)c1ccc(-c2oc3c([C@@H](C)Nc4ccccc4C(=O)O)cc(C)cc3c(=O)c2C)cc1 [Example 149, 2-[[(1R)-1-[2-(4-Methoxycarbonylphenyl)-3,6-dimethyl-4-oxo-chromen-8-yl]ethyl]amino]benzoic acid]
